Data: PubChem BioAssay (NCI)
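In this assay, cells in 96-well plates receive the compound at five concentrations for 48 hours. Endpoints are linearly interpolated between the surrounding concentrations. Abbreviation: GI50, concentration required for 50% inhibition of growth. At the TGI there is no net growth.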

How the values were obtained:
Test in all cases: DTP human tumour cell line panel, 48 h
RPMI-8226 leukemia = test system: RPMI-8226 leukemia
KM20L2 colon = test system: KM20L2 colon
SNB-19 CNS = test system: SNB-19 CNS
MOLT-4 leukemia = test system: MOLT-4 leukemia
HT29 colon = test system: HT29 colon
RXF 393 renal = test system: RXF 393 renal
M14 melanoma = test system: M14 melanoma
SNB-78 CNS = test system: SNB-78 CNS
DMS 114 small cell lung = test system: DMS 114 small cell lung
M19-MEL melanoma = test system: M19-MEL melanoma
SR leukemia = test system: SR leukemia
T-47D breast = test system: T-47D breast

Structure (SMILES) | TGI (RPMI-8226 leukemia) | TGI (KM20L2 colon) | TGI (SNB-19 CNS) | TGI (MOLT-4 leukemia) | TGI (HT29 colon) | TGI (RXF 393 renal) | TGI (M14 melanoma) | TGI (SNB-78 CNS) | TGI (DMS 114 small cell lung) | TGI (M19-MEL melanoma) | TGI (SR leukemia) | GI50 (SNB-19 CNS) | GI50 (MOLT-4 leukemia) | GI50 (HT29 colon) | GI50 (RXF 393 renal) | GI50 (M14 melanoma) | GI50 (T-47D breast) | TGI (T-47D breast) | GI50 (SR leukemia) | GI50 (RPMI-8226 leukemia)
C1=CC(=P(c2ccccc2)(c2ccccc2)c2ccccc2)C=C1 | 11 µM | 31.1 µM | 31.6 µM | 23.4 µM | 23.7 µM | 28.2 µM | 24.3 µM | 26.7 µM | 15.9 µM | 14.2 µM |  |  |  |  |  |  |  |  |  | 
CN1CCCC2[C@@H]3CCC4c5nonc5CC[C@]4(C)C3CC[C@@]21C (stereo partly specified) | > 100 µM | > 100 µM | > 100 µM | > 100 µM | > 100 µM | > 100 µM |  | > 100 µM | > 100 µM | > 100 µM | > 100 µM |  |  |  |  |  |  |  |  | 
CC(=O)N1[C@H](C(=O)O)CS[C@H]1c1ccc(F)cc1 |  |  | > 100 µM | > 100 µM | > 100 µM | > 100 µM | > 100 µM | > 100 µM | > 100 µM | > 100 µM | > 100 µM |  |  |  |  |  |  |  |  | 
CC(C)(C)C#COC(=O)c1ccccc1 | > 100 µM | > 100 µM | > 100 µM | > 100 µM | > 100 µM |  | > 100 µM | > 100 µM | > 100 µM | > 100 µM | > 100 µM |  |  |  |  |  |  |  |  | 
O=c1c(Cc2ccccc2)c(O)cc2n1CCC2 | > 100 µM | > 100 µM | > 100 µM | > 100 µM | > 100 µM | > 100 µM | > 100 µM | > 100 µM | > 100 µM | > 100 µM | > 100 µM |  |  |  |  |  |  |  |  | 
N/N=C(/Cc1ccccc1)NNO |  | > 100 µM | > 100 µM | > 100 µM | > 100 µM | > 100 µM | > 100 µM |  | > 100 µM | > 100 µM |  |  |  |  |  |  |  |  |  | 
[N-]=[N+]=CC(=O)CCC(N)C(=O)O (stereo unspecified) |  | > 250 µM | > 250 µM |  | 75.7 µM | 210 µM | > 250 µM | > 74.4 µM | 95.5 µM | > 138 µM | > 231 µM | 10.1 µM | 0.468 µM | 0.727 µM | 24.6 µM | 10.6 µM | 16.2 µM | > 250 µM |  | 
COc1cc(C)c2c(c1)CN1CN2Cc2cc(OC)cc(C)c21 | > 100 µM |  |  | > 100 µM | > 100 µM |  | > 100 µM | > 100 µM | 75.1 µM | > 100 µM | > 100 µM |  |  |  |  |  |  |  |  | 
O=C(c1ccccc1)C1N=NN(Cc2ccccc2[N+](=O)[O-])C1C(=O)c1ccccc1 (stereo unspecified) | > 100 µM | > 100 µM | > 100 µM | > 100 µM | > 100 µM | > 100 µM | > 100 µM | > 100 µM | > 100 µM | > 100 µM | > 100 µM |  |  |  |  |  |  |  |  | 
Cc1ccc(C2=CC(=O)c3ccccc3C2=O)n1-c1ccccc1 | > 100 µM | > 100 µM | > 100 µM | 98.5 µM | > 100 µM | > 100 µM | > 100 µM | > 100 µM | 55.2 µM | > 100 µM |  |  |  |  |  |  |  |  |  | 
CC(=O)Nc1ccc(C2CC(c3ccc([N+](=O)[O-])cc3)=Nc3ccccc3S2)cc1 (stereo unspecified) |  | 47.9 µM | 62.4 µM | 39.6 µM | 28.7 µM | 34.9 µM | 27.6 µM | > 100 µM |  | 45.6 µM | 61.9 µM |  |  |  |  |  |  |  |  | 
Cc1cc2c(c(C(=O)O)c1C)-c1cccc(Cl)c1C2=O | > 100 µM | > 100 µM | > 100 µM | > 100 µM | > 100 µM | > 100 µM | > 100 µM | > 100 µM | > 100 µM | > 100 µM |  |  |  |  |  |  |  |  |  | 
Cn1c(=O)oc2cc(C3CCC(=O)N3Cc3csc(-c4ccccc4)n3)ccc21 (stereo unspecified) | > 100 µM | > 100 µM | > 100 µM | > 100 µM | > 100 µM | > 100 µM | > 100 µM | > 100 µM | > 100 µM | > 100 µM | > 100 µM |  |  |  |  |  |  |  |  | 
Cc1cc(Cl)ccc1NC(=O)CCCC(=O)C1C/C(=N/O)CC/C1=N\O (stereo unspecified) | > 100 µM | > 100 µM | > 100 µM | > 100 µM | > 100 µM |  | > 100 µM | > 100 µM | > 100 µM | > 100 µM |  |  |  |  |  |  |  |  |  | 
Cc1cc(=O)[nH]c(NNC(C#N)c2cccc([N+](=O)[O-])c2)n1 (stereo unspecified) | > 100 µM | > 100 µM |  | > 100 µM | > 100 µM | > 100 µM | > 100 µM | > 100 µM | > 100 µM | > 100 µM | > 100 µM |  |  |  |  |  |  |  |  | 
CCOc1ccc(NC(=O)/C(CC(=O)c2c[n+](=O)c3ccccc3n2[O-])=N\OCCCc2ccccc2)cc1 | > 100 µM | > 100 µM | > 100 µM | > 100 µM | > 100 µM | > 100 µM | > 100 µM | > 100 µM | > 100 µM | > 100 µM | > 100 µM |  |  |  |  |  |  |  |  | 
COc1ccc(-c2ccc(OC)c(OC)c2OC)cc1 | > 100 µM |  | > 100 µM | > 100 µM | > 100 µM | > 100 µM | > 77.8 µM |  |  |  | > 100 µM | 4.83 µM | 2.39 µM | 0.529 µM | 2.83 µM | 0.817 µM | 5.87 µM | > 100 µM | 0.572 µM | 3.27 µM
CN(C)CCC(=O)Nc1ccc(-n2cc(-c3cccc(NC(=S)Nc4cccc(-c5cn(-c6ccc(NC(=O)CCN(C)C)cc6)nn5)c4)c3)nn2)cc1 | > 100 µM |  | > 100 µM | 84.6 µM | > 100 µM | > 100 µM | > 100 µM |  |  |  | > 100 µM | 49.5 µM | 20.7 µM | 6.03 µM | > 100 µM | 49.5 µM | 34.1 µM | > 100 µM | 26.2 µM | 38.6 µM
c1ccc2c(c1)[nH]c1c2nc2ccccn21 | > 100 µM | > 100 µM | > 100 µM | > 100 µM | > 100 µM | > 100 µM | > 100 µM | > 100 µM | > 100 µM | > 100 µM | > 100 µM |  |  |  |  |  |  |  |  | 
c1cnc2c(c1)-n1cccc1C1(CCCCC1)NN2 | > 100 µM |  | > 100 µM | > 100 µM | > 100 µM |  | > 100 µM |  | > 100 µM |  | > 100 µM |  |  |  |  |  |  |  |  | 
COc1cccc2c1C(=O)c1c(O)c3c(c(O)c1C2=O)C[C@@](O)(C(C)=O)CC3OC1CC(OC2CC(N)C(O)C(C)O2)C(O)C(C)O1 (stereo partly specified) | > 74.5 µM |  | > 85.1 µM | 7.24 µM | > 100 µM | > 100 µM | > 100 µM |  |  |  | > 70 µM |  |  |  |  |  |  | > 100 µM |  | 
